The values below come from patent publication US20140051665A1, “PROSTATE CANCER THERAPY WITH HSP90 INHIBITORY COMPOUNDS” (SYNTA PHARMACEUTICALS CORP., priority 2011, published 2014).

Like-named read-outs stand apart in the source and are kept apart here.

By IC50 is commonly meant the concentration needed to halve the response being measured.

The test system of data set [1] is DU-145 prostate carcinoma cells. The data set is described as follows: alamarBlue cell viability assay, single agents and docetaxel combination. To be noted: DU-145 cells, 72 hr. (Alamar Blue is a resazurin reagent that responds to reducing activity.)
Data set [2] concerns DU145 cells (EGFR, STAT3, IGF-IR). Briefly: Western blot of Hsp90 client proteins, DU145. In kind it is cell-based, human. The note with it: for exposure required for significant reductions in p-EGFR expression: DU145. The source says: (§1) Prostate cancer cell lines were lysed in RIPA buffer (Cell Signaling Technology, Beverly, Mass. USA) and HeLa lysed by four rounds of freeze/thawing using 1× Reporter Lysis Buffer (Promega, Madison, Wis., USA) containing 0.4 M NaCl. Lysates were clarified by centrifugation and equal amounts of protein resolved by SDSPAGE before transfer to nitrocellulose membranes. Membranes were blocked with 5% skim milk in TBS with 0.5% Tween and immunoblotted with indicated antibodies. Antigen-antibody complexes were visualized using an Odyssey system (LI-COR, Lincoln, Nebr., USA).
(In general: Immunoblotting shows a protein as a band on a membrane.)

Data set [3] relates to LNCaP cells (AR, p-AKT/AKT, CDK1). The data set is described as follows: Western blot of Hsp90 client proteins, LNCaP. In kind it is cell-based, human.
Excerpt: as §1

The subject of data set [4] is 22Rv1 cells (full-length AR, p-AKT/AKT, PARP). Briefly: Western blot, 22Rv1. In kind it is cell-based, human. To be noted: 22Rv1, 24 h.
Excerpt: as §1

In another data set the test system is V7 truncated AR isoform. The data set is described as follows: Expression of transfected V7 truncated AR in HeLa, immunoblot. The class given is cell-based. The note with it: 24 h, 1 mM GA or 250 nM ganetespib.
Data set [5] has as its system DU145 cells. Briefly: Cell cycle analysis by flow cytometry, DU145. The note with it: DU145, 0-500 nM, 24 h. In kind it is cell-based, human. The procedure: (§2) For cell cycle analysis, PC3 and DU145 cells were seeded overnight at 0.3×10^6 cells/5 mL in a 6-well plate and then exposed to increasing concentrations of ganetespib (0-500 nM) for 24 h. Cells were harvested and stained with propidium iodide using the BD Cycle TEST PLUS Reagent Kit (BD Biosciences, San Jose, Calif., USA) according to the manufacturer's instructions. Twenty thousand cells were analyzed for their DNA content using a FACS Caliber cytometer (BD Biosciences, Billerica, Mass., USA). For the apoptosis assay in the DU145 cell line, cells were treated with ganetespib (10, 100 or 500 nM), 17-AAG (500 or 1000 nM) or control (DMSO) for 24 h. Following treatment cells were harvested and stained using a fluorescein-conjugated anti-Annexin V antibody (BD Biosciences) and apoptosis assessed by flow cytometry.

The subject of another data set is LNCaP cells. Briefly: CellTiter-Glo cell viability assay, LNCaP. A general note: ATP-based viability assays read luminescence as a measure of living cells.
Another data set deals with full-length AR activity. Briefly: GRE-luciferase reporter assay in HeLa, full-length AR. In kind it is cell-based.
For data set [6], the system named is DU145 cells. Briefly: Annexin V apoptosis assay by flow cytometry. In kind it is cell-based, human. To be noted: DU145, 24 h, escalating doses. The procedure:
as §2

The test system of a further data set is constitutive V7 activity. The data set is described as follows: GRE-luciferase reporter assay in HeLa, V7 variant. In kind it is cell-based. The text has this: HeLa cells were transiently transfected using a poly-L-lysine coupled adenoviral-mediated DNA transfer technique as previously described. See, e.g., Nazareth et al (1996), Activation of the human androgen receptor through a protein kinase A signaling pathway. J Biol Chem 271 19900-19907. The plasmid constructs used were pCR3.1-AR (encoding for full length AR) and pCR3.1-V7 (encoding for the V7 truncated AR isoform and which was a gift from Manjula Nakka and William Krause, Baylor College of Medicine). For the expression study, HeLa cells were transfected with 3 ng of pCR3.1-AR or 0.5 ng of pCR3.1-V7 for 24 h. Cells were treated with R1881 (10 nM), GA (1 μM), and/or STA9090 (250 nM) or vehicle (ethanol and DMSO) for 24 hours prior to lysis and immunoblotting. To determine the effect of Hsp90 inhibitors on AR and variant activity, HeLa cells were transiently transfected with 250 ng of GRE-luciferase reporter, 30 ng of pCR3.1 β-galactosidase, 3 ng of pCR3.1-AR, or 0.03 ng of pCR3.1-V7 and treated as above. Luciferase and β-galactosidase activities were measured and luciferase levels normalized to β-galactosidase levels as described previously. See, e.g., Agoulnik et al (2003), Repressors of androgen and progesterone receptor action. J Biol Chem 278 31136-31148.

A further data set relates to PC3 cells (IGF-1R). The data set is described as follows: Western blot of Hsp90 client proteins, PC3. In kind it is cell-based, human.
Excerpt: as §1

Data set [7] relates to PC3 cells. The data set is described as follows: CellTiter-Glo cell viability assay, PC3. The note with it: read-out: cytotoxicity IC50.
Procedure: (§3) The LNCaP, VCaP, 22Rv1, DU145 and PC3 human prostate cancer cell lines and HeLa cells were all purchased from the American Type Culture Collection (Manassas, Va., USA). Cells were maintained and cultured according to standard techniques at 37° C. in 5% (v/v) CO2 using culture medium recommended by the supplier. […] The Hsp90 inhibitors ganetespib and 17-AAG were synthesized at Synta Pharmaceuticals Corp. methyltrienolone (R1881) was purchased from Perkin-Elmer (Boston, Mass., USA).
(§4) Cellular viability was assessed using the CellTiter-Glo Luminescent Cell Viability Assay (Promega, Madison, Wis., USA) according to the manufacturer's protocol. Twenty-four hours after plating at 5×10^3 cells/well in triplicate in 96-well plates, cells were dosed with graded concentrations of ganetespib or 17-AAG for 72 h. CellTiter-Glo was added (50% v/v) to the cells, and the plates incubated for 10 min prior to luminescent detection in a SpectraMax Plus 384 microplate reader (Molecular Devices, Sunnyvale, Calif., USA). Data were normalized to percent of control and IC50 values used to determine the sensitivity of each line.
For a further data set, the system named is PC3 tumor xenografts. Briefly: In vivo prostate xenograft model. The note with it: for % T/C: PC3 xenografts in nude mice, i.v.
Data set [8] deals with PC3 cells. Briefly: Cell cycle analysis by flow cytometry, PC3. To be noted: PC3, 0-500 nM, 24 h. In kind it is cell-based, human. The procedure:
as §2

The conditions of data set [9]: weekly dosing regimen; cited from earlier work.
Another data set deals with full length AR. Briefly: Expression of transfected full length AR in HeLa, immunoblot. The class given is cell-based. The note with it: 24 h, GA or 250 nM ganetespib, 10 nM R1881.
In data set [10] the test system is AR-specific transcriptional activity in LNCaP cells. The data set is described as follows: Quantitative RT-PCR of AR-directed genes PSA and TMPRSS2. The note with it: 250 nM ganetespib or 1 μM geldanamycin, 24 h, 10 nM R1881. The class given is cell-based, human. The procedure:
LNCaP cells were cultured in charcoal-stripped medium for 24 h and then treated with 250 nM ganetespib, 1 μM geldanamycin, or vehicle for 24 h in the absence or presence of 10 nM methyltrienolone (R1881). RNA was prepared from the LNCaP cells post-treatment using TRIzol reagent (Invitrogen, Grand Island, N.Y., USA). Previously reported prostate specific antigen (PSA), transmembrane protease, serine 2 (TMPRSS2), and 18S primer sets were used for target gene expression and were analyzed using SYBR green PCR Master mix in an ABI 7500 Fast sequence detection system. See, e.g., Agoulnik et al (2006), Androgens modulate expression of transcription intermediary factor 2, an androgen receptor coactivator whose expression level correlates with early biochemical recurrence in prostate cancer. Cancer Res 66 10594-10602. PSA and TMPRSS2 mRNA levels were normalized to 18S mRNA values.

The subject of the next data set is VCaP cells. Briefly: CellTiter-Glo cell viability assay, VCaP.
Data set [11] concerns DU145 cells. The data set is described as follows: CellTiter-Glo cell viability assay, DU145. To be noted: read-out: cytotoxicity IC50.
Procedure: as §3, §4
For data set [12], the system named is PCa cell lines (LNCaP, 22Rv1, PC-3, DU-145). The data set is described as follows: Summary of potency in PCa cell line panel versus 17-AAG. The class given is cell-based, human.
Procedure: as §4
In the next data set the test system is 22Rv1 cells. The data set is described as follows: CellTiter-Glo cell viability assay, 22Rv1. The note with it: 22Rv1, 72 h, read-out: cytotoxicity IC50.
The subject of data set [13] is PC3 cells. The data set is described as follows: Combination of AZD-7762 with ganetespib, killing of PC3 cells. The class given is cell-based, human.
The mark [14] stands for this setting: Homo sapiens, 72 h, read-out: cytotoxicity IC50.
Setting [15] is: read-out: cytotoxicity IC50, 72 h.

Procedure for PC3 tumor xenografts: Eight-week-old female immunodeficient nude mice (Charles River Laboratories, Wilmington, Mass.) were maintained in a pathogen-free environment, and all in vivo procedures were approved by the Synta Pharmaceuticals Corp. Institutional Animal Care and Use Committee. PC3 tumor cells were subcutaneously implanted into nude mice. […] Tumor volumes (V) were calculated by caliper measurements of the width (W), length (L), and thickness (T) of each tumor using the formula: V=0.5236(LWT). Tumor growth inhibition was determined as described previously.
Excerpt for V7 truncated AR isoform: (§5) HeLa cells were transiently transfected using a poly-L-lysine coupled adenoviral-mediated DNA transfer technique as previously described. […] The plasmid constructs used were pCR3.1-AR (encoding for full length AR) and pCR3.1-V7 (encoding for the V7 truncated AR isoform and which was a gift from Manjula Nakka and William Krause, Baylor College of Medicine).
Procedure for VCaP cells: as §3, §4
Excerpt for full length AR: as §5
Procedure for full-length AR activity: HeLa cells were transiently transfected using a poly-L-lysine coupled adenoviral-mediated DNA transfer technique as previously described. […] The plasmid constructs used were pCR3.1-AR (encoding for full length AR) and pCR3.1-V7 (encoding for the V7 truncated AR isoform and which was a gift from Manjula Nakka and William Krause, Baylor College of Medicine). […] To determine the effect of Hsp90 inhibitors on AR and variant activity, HeLa cells were transiently transfected with 250 ng of GRE-luciferase reporter, 30 ng of pCR3.1 β-galactosidase, 3 ng of pCR3.1-AR, or 0.03 ng of pCR3.1-V7 and treated as above. Luciferase and β-galactosidase activities were measured and luciferase levels normalized to β-galactosidase levels as described previously.

`CC(=O)O[C@@]12CO[C@@H]1C[C@H](O)[C@@]1(C)C(=O)[C@H](O)C3=C(C)[C@@H](OC(=O)[C@H](O)[C@@H](NC(=O)OC(C)(C)C)c4ccccc4)C[C@@](O)([C@@H](OC(=O)c4ccccc4)[C@H]21)C3(C)C` [docetaxel, reference compound]: in [1], the IC50 amounted to 0.001 µM.

Turning to `CC(C)c1cc(-c2nnc(O)n2-c2ccc3c(ccn3C)c2)c(O)cc1O` [Ganetespib, 3-(2,4-dihydroxy-5-isopropyl-phenyl)-4-(1-methyl-indol-5-yl)-5-hydroxy-[1,2,4] triazole], the “exposure required for significant reductions in p-EGFR expression” value in data set [2] is 18 h. Further, the STAT3 signaling result in data set [2] (DU145, 24 h, Western blot) is on record as “completely abrogated”. Also, in data set [3] (100 nM), the “time of destabilization of p-AKT/AKT” value is 18 h. Besides, the “time of loss of total and phosphorylated CDK1” value in data set [3] (100 nM) is no more than 24 h. The “time to measurable reduction in AR expression” value in data set [3] (100 nM) is no more than 3 h. Moreover, the AR levels result in data set [3] (24 h, Western blot) is “potent and dose-dependent decrease”. For the same compound, in [4], the “dose sufficient to induce degradation of full-length AR, destabilization of p-AKT/AKT and apoptosis (cleaved PARP)” value is recorded as no more than 25 nM. Further, the “expression of the variant (V7) receptor” value in the data set on V7 truncated AR isoform is on record as “neither inhibitor significantly altered expression”. Also, the cell cycle distribution result in the data set with DU145 cells [5] and in the data set with PC3 cells [8] was “dose-dependent accumulation of cells in the G2/M phase” throughout. The IC50 in the data set on LNCaP cells (setting [14]) came to 0.008 µM; in [1] it was 0.014 µM; in the data set with PC3 cells [7] (Homo sapiens, PC-3, 72 h) it was 0.077 µM; with VCaP cells (setting [14]) it was 0.007 µM; in the data set on DU145 cells [11] (Homo sapiens, DU-145, 72 h), 0.012 µM; in the data set on 22Rv1 cells (Homo sapiens) it was 0.002 µM. The “full-length AR activity, luciferase assay” value with full-length AR activity is listed as “strongly inhibited”. For the same compound, the “apoptotic cells, Annexin V staining” value in the data set with DU145 cells [6] is reported as “dose-dependent increase in apoptotic cells”. The “constitutive V7 activity, luciferase assay” value with constitutive V7 activity is reported as “less effective”. The “time by which IGF-1R levels were reduced” value in the data set with PC3 cells (IGF-1R) was no more than 6 h. Besides, the “tolerability of the regimen” value in the data set on PC3 tumor xenografts (150 mg/kg weekly, nude mice) is reported as “well tolerated”. In addition, the “% T/C” value with PC3 tumor xenografts (once a week at 150 mg/kg for 4 weeks) turned out to be 17%; in the data set with PC3 tumor xenografts (twice a week at 50 mg/kg for 4 weeks), 3%. Moreover, in data set [9], the “highest non-severely toxic dose (HNSTD)” value is reported as 150 mg/kg. For the same compound, in the data set with full length AR, the “androgen-increased full-length AR expression” value was “completely abrogated”. For the same compound, in [10], the “R1881 induction of PSA and TMPRSS2 mRNA” value is on record as “significantly inhibited”. Also, in data set [12], the “IC50 fold less than 17-AAG” value is listed as 3-7 fold.

Consider `C=CCNC1=C2C[C@@H](C)C[C@H](OC)[C@H](O)[C@@H](C)/C=C(\C)[C@H](OC(N)=O)[C@@H](OC)/C=C\C=C(/C)C(=O)NC(=CC1=O)C2=O` [Compound 17-AAG, 17-AAG, reference compound], for which the “exposure required for significant reductions in p-EGFR expression” value in data set [2] was found to be 18 h. Besides, the IC50 in the data set on LNCaP cells (setting [15]) was 0.265 µM; with PC3 cells [7] (PC3, 72 h), 0.246 µM; in the data set on VCaP cells (setting [15]), 2.65 µM; with DU145 cells [11] (DU145, 72 h), 0.036 µM; in the data set with 22Rv1 cells, 1.27 µM. For the same compound, the “apoptotic cells, Annexin V staining” value in the data set on DU145 cells [6] is “comparable proportion of apoptotic cells”.

For `NC(=O)Nc1cc(-c2cccc(F)c2)sc1C(=O)N[C@H]1CCCNC1` [AZD-7762], in the data set on PC3 cells [13], the “combination effect with ganetespib in killing cells” value is reported as “in synergy with ganetespib”.
